Reference: patent publication US20060142572A1, “Inhibitors of ERK protein kinase and uses thereof” (priority 2004, published 2006)

target: activated ERK2 (Homo sapiens, UniProt P28482); assay: ERK2 inhibition assay (spectrophotometric coupled-enzyme assay); format: biochemical; conditions: activated ERK2 10 nM, 65 μM ATP, 200 μM erktide peptide, 30° C., pH 7.5
Method: Compounds were assayed for the inhibition of ERK2 by a spectrophotometric coupled-enzyme assay (Fox et al., Protein Sci. 7:2249, 1998). In this assay, a fixed concentration of activated ERK2 (10 nM) was incubated with various concentrations of a compound of the present invention in DMSO (2.5%) for 10 min. at 30° C. in 0.1 M HEPES buffer (pH 7.5), containing 10 mM MgCl2, 2.5 mM phosphoenolpyruvate, 200 μM NADH, 150 μg/ml pyruvate kinase, 50 μg/ml lactate dehydrogenase, and 200 μM erktide peptide. The reaction was initiated by the addition of 65 μM ATP. The rate of decrease of absorbance at 340 nm was monitored.

activated ERK2, sequence (P28482 whole entry): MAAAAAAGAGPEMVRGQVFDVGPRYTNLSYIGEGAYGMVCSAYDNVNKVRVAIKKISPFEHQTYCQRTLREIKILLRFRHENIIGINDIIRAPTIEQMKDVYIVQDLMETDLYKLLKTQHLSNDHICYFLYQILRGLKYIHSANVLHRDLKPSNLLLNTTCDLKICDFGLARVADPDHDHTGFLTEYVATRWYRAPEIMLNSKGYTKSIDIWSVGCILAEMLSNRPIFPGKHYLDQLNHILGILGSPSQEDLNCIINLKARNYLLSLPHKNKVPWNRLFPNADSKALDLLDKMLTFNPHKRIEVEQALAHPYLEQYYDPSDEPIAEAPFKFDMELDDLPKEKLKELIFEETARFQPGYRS

Ki [nM] | SMILES
> 700 | CC(C)Nc1ncc(Cl)c(NCC(=O)N[C@H](CO)c2cccc(Cl)c2)n1 [Compound I-1]
≤ 700 | C[C@@H](CO)Nc1ncc(Cl)c(NCC(=O)N[C@H](CO)c2cccc(Cl)c2)n1 [Compound I-2, 2-[5-chloro-2-(2-hydroxy-1-methylethylamino)-pyrimidin-4-ylamino]-N-[1-(3-chlorophenyl)-2-hydroxyethyl]acetamide]
> 700 | CC(C)Nc1ncc(Cl)c(NCCC(=O)N[C@H](CO)c2cccc(Cl)c2)n1 [Compound I-3]
> 700 | C[C@@H](CO)Nc1ncc(Cl)c(NCCC(=O)N[C@H](CO)c2cccc(Cl)c2)n1 [Compound I-4]
> 700 | C[C@@H](CO)Nc1ncc(Cl)c(NC2(C(=O)N[C@H](CO)c3cccc(Cl)c3)CC2)n1 [Compound I-5, 1-(5-chloro-2-(2-hydroxy-1-methylethylamino)-pyrimidin-4-ylamino)-cyclopropanecarboxylic acid [1-(3-chlorophenyl)-2-hydroxyethyl]-amide]
> 700 | CC[C@@H](CO)Nc1ncc(Cl)c(NC2(C(=O)N[C@H](CO)c3cccc(Cl)c3)CC2)n1 [Compound I-6]
> 700 | C[C@@H](CO)Nc1ncc(Cl)c(N(C)CC(=O)N[C@H](CO)c2cccc(Cl)c2)n1 [Compound I-7, 2-{[5-chloro-2-(2-hydroxy-1-methylethylamino)pyrimidin-4-yl]-methylamino}-N-[1-(3-chlorophenyl)-2-hydroxyethyl]acetamide]
> 700 | C[C@@H](CO)Nc1nccc(N(C)CC(=O)N[C@H](CO)c2cccc(Cl)c2)n1 [Compound I-8]
